Source: patent US20190177286A1, “CRYSTAL MODIFICATIONS OF ELOBIXIBAT” (Elobix AB, priority 2014, published 2019)

Assay: Dynamic Vapor Sorption (DVS), two sorption-desorption cycles 0-95-0% RH
Assay type: physicochemical
Conditions: for phase change from anhydrate to dihydrate, significant change in moisture (sorption curves): DVS sorption cycles
Method: Approximately 2-16 mg of the sample was weighed into a metal receptacle, which was then released of static electricity. The metal receptacle was positioned in a Surface Measurements System Ltd DVS Advantage instrument. The sample was subjected to two consecutive sorption-desorption cycles, each running from 0-95-0% relative humidity (% RH). One cycle consisted of 21 steps, those between 0-90% RH were taken in 10% RH each. At each stage the following equilibrium criteria was used: dm/dt over 5 minutes <0,002% and the minimum and maximum time at each stage were 10 and 360 min respectively.

CCCCC1(CCCC)CN(c2ccccc2)c2cc(SC)c(OCC(=O)N[C@@H](C(=O)NCC(=O)O)c3ccccc3)cc2S(=O)(=O)C1 [crystal modification C, N-{(2R)-2-[({[3,3-dibutyl-7-(methylthio)-1,1-dioxido-5-phenyl-2,3,4,5-tetrahydro-1,5-benzothiazepin-8-yl]oxy}acetyl)amino]-2-phenylethanolyl}-glycine]
phase change from anhydrate to dihydrate, significant change in moisture (sorption curves) (listed as C): 60-70 % RH

CCCCC1(CCCC)CN(c2ccccc2)c2cc(SC)c(OCC(=O)N[C@@H](C(=O)NCC(=O)O)c3ccccc3)cc2S(=O)(=O)C1 [crystal modification F, N-{(2R)-2-[({[3,3-dibutyl-7-(methylthio)-1,1-dioxido-5-phenyl-2,3,4,5-tetrahydro-1,5-benzothiazepin-8-yl]oxy}acetyl)amino]-2-phenylethanolyl}-glycine]
moisture uptake (DVS isotherm) (weight % water versus % RH, two consecutive DVS cycles, FIG. 10): linear function of % RH

CCCCC1(CCCC)CN(c2ccccc2)c2cc(SC)c(OCC(=O)N[C@@H](C(=O)NCC(=O)O)c3ccccc3)cc2S(=O)(=O)C1 [crystal modification L, N-{(2R)-2-[({[3,3-dibutyl-7-(methylthio)-1,1-dioxido-5-phenyl-2,3,4,5-tetrahydro-1,5-benzothiazepin-8-yl]oxy}acetyl)amino]-2-phenylethanolyl}-glycine]
phase change from anhydrate to dihydrate, significant change in moisture (sorption curves) (listed as L): 40-50 % RH

CCCCC1(CCCC)CN(c2ccccc2)c2cc(SC)c(OCC(=O)N[C@@H](C(=O)NCC(=O)O)c3ccccc3)cc2S(=O)(=O)C1 [crystal modification N, N-{(2R)-2-[({[3,3-dibutyl-7-(methylthio)-1,1-dioxido-5-phenyl-2,3,4,5-tetrahydro-1,5-benzothiazepin-8-yl]oxy}acetyl)amino]-2-phenylethanolyl}-glycine]
moisture amount where the four DVS curves coincide (dihydrate) (DVS, sorption and desorption curves of two cycles): around 5 % w/w
